Results from EPA's CvTdb concentration-time database.

Key:
[1] = test system: Rat; assay: concentration in adipose after dosing; conditions: 480 h; dosed: 2,3,7,8-Tetrachlorodibenzo-p-dioxin; 0.0001 mg/kg; oral; Female; Sprague-Dawley
[2] = test system: Rat; assay: concentration in adipose after dosing; conditions: 480 h; dosed: 2,3,7,8-Tetrachlorodibenzo-p-dioxin; 0.0001 mg/kg; oral; Female; Sprague-Dawley; remark: listed apart in the source
[3] = test system: Rat; assay: concentration in adipose after dosing; conditions: 1680 h; dosed: 2,3,7,8-Tetrachlorodibenzo-p-dioxin; 0.0001 mg/kg; oral; Female; Sprague-Dawley
[4] = test system: Rat; assay: concentration in adipose after dosing; conditions: 960 h; dosed: 2,3,7,8-Tetrachlorodibenzo-p-dioxin; 0.0001 mg/kg; oral; Female; Sprague-Dawley
[5] = test system: Rat; assay: concentration in adipose after dosing; conditions: 48 h; dosed: 2,3,7,8-Tetrachlorodibenzo-p-dioxin; 0.0001 mg/kg; oral; Female; Sprague-Dawley
[6] = test system: Rat; assay: concentration in adipose after dosing; conditions: 960 h; dosed: 2,3,7,8-Tetrachlorodibenzo-p-dioxin; 0.0001 mg/kg; oral; Female; Sprague-Dawley; remark: listed apart in the source
[7] = test system: Rat; assay: concentration in adipose after dosing; conditions: 480 h; dosed: 2,3,7,8-Tetrachlorodibenzo-p-dioxin; 0.0001 mg/kg; oral; Female; Sprague-Dawley; remark: listed apart in the source
[8] = test system: Rat; assay: concentration in adipose after dosing; conditions: 48 h; dosed: 2,3,7,8-Tetrachlorodibenzo-p-dioxin; 0.0001 mg/kg; oral; Female; Sprague-Dawley; remark: listed apart in the source
[9] = test system: Rat; assay: concentration in adipose after dosing; conditions: 48 h; dosed: 2,3,7,8-Tetrachlorodibenzo-p-dioxin; 0.0001 mg/kg; oral; Female; Sprague-Dawley; remark: listed apart in the source
[10] = test system: Rat; assay: concentration in adipose (perirenal) after dosing; conditions: 960 h; dosed: 2,3,7,8-Tetrachlorodibenzo-p-dioxin; 0.0001 mg/kg; oral; Female; Sprague-Dawley
[11] = test system: Rat; assay: concentration in adipose (perirenal) after dosing; conditions: 480 h; dosed: 2,3,7,8-Tetrachlorodibenzo-p-dioxin; 0.0001 mg/kg; oral; Female; Sprague-Dawley
[12] = test system: Rat; assay: concentration in adipose (perirenal) after dosing; conditions: 480 h; dosed: 2,3,7,8-Tetrachlorodibenzo-p-dioxin; 0.0001 mg/kg; oral; Female; Sprague-Dawley; remark: listed apart in the source
[13] = test system: Rat; assay: concentration in adipose (perirenal) after dosing; conditions: 1680 h; dosed: 2,3,7,8-Tetrachlorodibenzo-p-dioxin; 0.0001 mg/kg; oral; Female; Sprague-Dawley
[14] = test system: Rat; assay: concentration in adipose (perirenal) after dosing; conditions: 48 h; dosed: 2,3,7,8-Tetrachlorodibenzo-p-dioxin; 0.00005 mg/kg; oral; Female; Sprague-Dawley
[15] = test system: Rat; assay: concentration in adipose (perirenal) after dosing; conditions: dosed: 2,3,7,8-Tetrachlorodibenzo-p-dioxin, oral, Female, Sprague-Dawley
[16] = test system: Rat; assay: concentration in adipose (perirenal) after dosing; conditions: 1680 h; dosed: 2,3,7,8-Tetrachlorodibenzo-p-dioxin; 0.0001 mg/kg; oral; Female; Sprague-Dawley; remark: listed apart in the source
[17] = test system: Rat; assay: concentration in adipose (perirenal) after dosing; conditions: 48 h; dosed: 2,3,7,8-Tetrachlorodibenzo-p-dioxin; 0.0001 mg/kg; oral; Female; Sprague-Dawley
[18] = test system: Rat; assay: concentration in adipose (perirenal) after dosing; conditions: 2400 h; dosed: 2,3,7,8-Tetrachlorodibenzo-p-dioxin; 0.0001 mg/kg; oral; Female; Sprague-Dawley
[19] = test system: Rat; assay: concentration in adipose (perirenal) after dosing; conditions: 2400 h; dosed: 2,3,7,8-Tetrachlorodibenzo-p-dioxin; 0.0001 mg/kg; oral; Female; Sprague-Dawley; remark: listed apart in the source
[20] = test system: Rat; assay: concentration in adipose (perirenal) after dosing; conditions: 960 h; dosed: 2,3,7,8-Tetrachlorodibenzo-p-dioxin; 0.0001 mg/kg; oral; Female; Sprague-Dawley; remark: listed apart in the source
[21] = test system: Rat; assay: concentration in adipose (perirenal) after dosing; conditions: 960 h; dosed: 2,3,7,8-Tetrachlorodibenzo-p-dioxin; 0.0001 mg/kg; oral; Female; Sprague-Dawley; remark: listed apart in the source
[22] = test system: Rat; assay: concentration in adipose (perirenal) after dosing; conditions: 48 h; dosed: 2,3,7,8-Tetrachlorodibenzo-p-dioxin; 0.00005 mg/kg; oral; Female; Sprague-Dawley; remark: listed apart in the source
[23] = test system: Rat; assay: concentration in adipose (perirenal) after dosing; conditions: 1680 h; dosed: 2,3,7,8-Tetrachlorodibenzo-p-dioxin; 0.0001 mg/kg; oral; Female; Sprague-Dawley; remark: listed apart in the source
[24] = test system: Rat; assay: concentration in adipose (perirenal) after dosing; conditions: 48 h; dosed: 2,3,7,8-Tetrachlorodibenzo-p-dioxin; 0.0001 mg/kg; oral; Female; Sprague-Dawley; remark: listed apart in the source
[25] = test system: Rat; assay: concentration in adipose (perirenal) after dosing; conditions: 48 h; dosed: 2,3,7,8-Tetrachlorodibenzo-p-dioxin; 0.0001 mg/kg; oral; Female; Sprague-Dawley; remark: listed apart in the source
[26] = test system: Rat; assay: concentration in adipose (perirenal) after dosing; conditions: 480 h; dosed: 2,3,7,8-Tetrachlorodibenzo-p-dioxin; 0.0001 mg/kg; oral; Female; Sprague-Dawley; remark: listed apart in the source
[27] = test system: Rat; assay: concentration in adipose (perirenal) after dosing; conditions: 2400 h; dosed: 2,3,7,8-Tetrachlorodibenzo-p-dioxin; 0.0001 mg/kg; oral; Female; Sprague-Dawley; remark: listed apart in the source
[28] = test system: Rat; assay: concentration in adipose (perirenal) after dosing; conditions: 48 h; dosed: 2,3,7,8-Tetrachlorodibenzo-p-dioxin; 0.0001 mg/kg; oral; Female; Sprague-Dawley; remark: listed apart in the source
[29] = test system: Rat; assay: concentration in adipose (perirenal) after dosing; conditions: 48 h; dosed: 2,3,7,8-Tetrachlorodibenzo-p-dioxin; 0.0001 mg/kg; oral; Female; Sprague-Dawley; remark: listed apart in the source

Clc1cc2c(cc1Cl)Oc1cc(Cl)c(Cl)cc1O2 [2,3,7,8-Tetrachlorodibenzo-p-dioxin]
Conditions	concentration in adipose [pg/g]
[1]	372
[2]	422
[3]	152
[4]	294
[5]	497
[6]	294
[7]	537
[8]	374
[9]	292
[10]	305
[11]	483
[12]	384
[13]	212
[14]	236
[16]	143
[17]	402
[18]	271
[19]	218
[20]	264
[21]	298
[22]	148
[23]	213
[24]	260
[25]	379
[26]	490
[27]	106
[28]	407
[29]	469

concentration in adipose [pg/g], [15]
Conditions	8 h	48 h	480 h	960 h	1680 h	2400 h
0.00005 mg/kg	–	416	260	146	–	–
0.0001 mg/kg	135	371	190	172	103	112
